# Data from patent US20230263817A1, “HIGH DOSE NICOTINAMIDE ADENINE DINUCLEOTIDE (NAD) PRECURSOR REGIMENS FOR REDUCTION OF INFLAMMATION IN HUMAN PATIENTS WITH PREEXISTING INFLAMMATION” (University of Washington, priority 2021, published 2023).
# What was measured:
# [1] = system: NLRP3 and pro-inflammatory cytokine (IL1β, IL6, IL18, TNFα) mRNA in healthy PBMCs; experiment: RT-qPCR of NLRP3 and pro-inflammatory cytokine mRNA in healthy PBMCs treated in vitro; assay type: cell-based, human; details: 4-hour MitoDAMP with 0.5 mM MitoTempo relative to MitoDAMP alone
# Protocol: (§1) PBMC and Monocyte Culture. Freshly isolated PBMCs or Monocytes from healthy or HF subjects were resuspended with RPMI medium plus 10% heat inactivated FBS. PBMCs (10^6 cells/well) were seeded in Seahorse 24-well plates and incubated at 37° C. in CO2 incubator with various proinflammatory triggers (Vehicle, MitoDAMP, LPS) and compounds (NR, MCC 950, MitoTempo, or LMT-28). After 4 hours incubation, the plate was centrifuged at 40 g for 10 minutes at room temperature without application of the brake to help cells attach to the bottom of the plate. The cells were washed twice and then brought up to 500 μL using Seahorse base medium (Agilent Technologies, supplemented with 1 mM pyruvate, 2 mM glutamine, and 10 mM glucose, pH 7.4).
# IL6 ELISA. Isolated PBMCs (4×10^6 cells per sample) from healthy or HF participants were resuspended in RPMI medium containing 10% heat-inactivated FBS and treated with various proinflammatory triggers (Vehicle, MitoDAMP, LPS) and compounds (NR, MCC 950, MitoTempo, or LMT-28) to final PBMC concentrations of 10×10^6 cells per mL. See below for detailed descriptions of the reagents. The samples were incubated in Eppendorf tubes at 37° C. in a 5% CO2 incubator with caps open for times designated in the brief description of drawings. The cultured PBMC samples were centrifuged at 8,000 RPM at room temperature. The supernatant was used for ELISA per the manufacture protocol using R&D Systems human IL6 kit (Cat #DY206-05). The cell pellets were stored in −80° C.
# RNA Isolation and Quantitative PCR analysis. Total RNA was isolated from frozen PBMC pellets using Trizol (Invitrogen) per the manufacturer's instructions, and cDNA was synthesized using iScript™ Reverse Transcription Supermix (Bio-rad) per the manufacturer's instructions. Real-time PCR was performed in the Corbett rotor gene 6000 real-time PCR machine using iQ™ SYBR® Green Supermix (Bio-rad) and expression levels of the indicated genes were calculated using the ΔΔCt method.
# healthy PBMCs = experiment: Seahorse Mito Stress Test (OCR) of healthy PBMCs after 4-hour in vitro treatment; assay type: cell-based, human; details: for PBMC maximal OCR: 4-hour increasing concentrations of recombinant human IL1B or IL18
# Protocol: (§2) PBMC and Monocyte isolation. 30-60 ml of fasting blood was collected into EDTA-containing Vacutainers (BD Mfr #364606). Blood then was diluted (1:1) with RPMI medium (Corning; Cat #17-105-CV) and applied to Histopaque gradient medium (Sigma-Aldrich; Cat #10771) using SepMate-50 (STEMCELL Technologies), and centrifuged at 1200 g for 10 minutes. Top layer contained the enriched peripheral blood mononuclear cells (PBMCs) which were collected and followed by centrifugation at 300 g for 10 minutes. The pellet was resuspended with ACK lysis buffer (Gibco; Cat. A1049201) and incubated at room temperature for 5 minutes to remove residual red blood cells. Next, the enriched PBMCs were washed twice with RPMI medium. All PBMC samples were subjected to the baseline Seahorse Mito Stress Test. When available, the remaining cells were used for cytokine mRNA quantitative PCR and in vitro assays. For monocyte isolation, a magnetic bead-based negative-selection monocyte isolation kit (Miltenyi Biotec, 130-096-537) was used per the manufacturer's instructions. Briefly, antibody-conjugated magnetic bead solution was added to isolated PBMCs resuspended in RPMI containing 0.5% BSA and incubated for 20 minutes at 4° C., followed by magnetic column binding and elution. The procedure was repeated once to improve the purity of monocytes. The monocytes were washed once with RPMI prior to subsequent experiments.
# Seahorse Mito Stress Test. Oxygen consumption rate (OCR) of freshly isolated PBMCs was assessed using a Seahorse XFe24 analyzer (Agilent Technologies). Briefly, purified PBMCs were resuspended in Seahorse base medium (Agilent Technologies, supplemented with 1 mM pyruvate, 2 mM glutamine, and 10 mM glucose, pH 7.4), and added 10^6 cells/well at equal volume of 500 μL in a Seahorse 24-well plate. The cells were maintained in a non-CO2 incubator and allowed to settle for 30 minutes at 37° C. Next, the plate was centrifuged at 40 g for 10 minutes at room temperature without application of the brake to help cells attach to the bottom of the plate. Drugs used in the assay: 5 μM oligomycin A (Sigma-Aldrich; Cat. 75351), 3 μM Trifluoromethoxy carbonylcyanide phenylhydrazone (FCCP) (Sigma-Aldrich; Cat. C2920), 1 μM Rotenone (Sigma-Aldrich; Cat. […]), 1 μM Antimycin A (Sigma-Aldrich; Cat. […]), 0.5 mM TMPD (Sigma-Aldrich; Cat. T7394) and 10 mM Ascorbate (Sigma-Aldrich; Cat. 95209).
# as §1
# [2] = system: monocytes isolated from healthy subjects; experiment: Maximal respiration of isolated monocytes after 4-hour IL6 treatment; assay type: cell-based; details: 4-hour 1 ng/mL recombinant human IL6
# Protocol: as §2, with “Briefly, antibody-conjugated magnetic bead solution was added to isolated PBMCs resuspended in RPMI containing 0.5% BSA and incubated for 20 minutes at 4° C., followed by magnetic column binding and elution. The procedure was repeated once to improve the purity of monocytes. The monocytes were washed once with RPMI prior to subsequent experiments.” left out
# Seahorse Mito Stress Test. Oxygen consumption rate (OCR) of freshly isolated PBMCs was assessed using a Seahorse XFe24 analyzer (Agilent Technologies). […]
# Complex I = details: healthy PBMC, 4-hour IL6 (1 ng/mL) vs vehicle
# Protocol: Complex I in vitro assay. This assay was performed using Abcam Complex I Enzyme Activity Microplate Assay Kit (ab109721), per the manufacturer's protocol. Briefly, following a 4-hour treatment with vehicle or IL6, 5×10^6 PBMCs were washed with PBS and lysed by detergent for 30 minutes on ice, followed by centrifugation at 16,000 g for 20 minutes at 4° C. Supernatant was taken for protein concentration determination. 12.5 μg of total protein in a final volume of 200 μL was incubated in microplates precoated with anti-Complex I antibody for 3 hours at room temperature. Post-washing step, NADH and dye were added, and optical density (OD) was serially measured at 450 nm over 1 hour. The slope of the curve within the linear range was recorded as Complex I activity.
molecule,measurement,setting,value
CC1(C)CC(NC(=O)C[P+](c2ccccc2)(c2ccccc2)c2ccccc2)CC(C)(C)N1[O] [MitoTempo],cytokine gene expressions,[1],markedly attenuated
same,maximal OCR,"healthy PBMCs; healthy PBMC, 4-hour MitoDAMP with 0.5 mM MitoTempo vs MitoDAMP alone",did not change
"recombinant IL1β: human recombinant IL1β, purchased from R&D Systems",PBMC maximal OCR,healthy PBMCs; healthy PBMCs,did not result in a significant decrease
"recombinant IL6: human recombinant IL6, purchased from Gibco",maximal OCR of monocytes,[2],decreased
same,Complex I enzymatic activity,Complex I,reduced
same,OCR through Complex IV (TMPD and ascorbate as electron donors),"healthy PBMCs; healthy PBMC, 4-hour IL6 (1 ng/mL) vs vehicle",no difference
same,maximal OCR,"healthy PBMCs; healthy PBMCs, 4-hour increasing concentrations of human recombinant IL6",dose-dependent decline
same,lowest IL6 concentration with significant reduction of maximal OCR,"healthy PBMCs; healthy PBMCs, 4-hour treatment",0.1 ng/mL
"IL18: human recombinant IL18, purchased from R&D Systems",PBMC maximal OCR,healthy PBMCs; healthy PBMCs,did not result in a significant decrease
CC(C)(O)c1coc(S(=O)(=O)NC(=O)Nc2c3c(cc4c2CCC4)CCC3)c1 [MCC950],maximal OCR,"healthy PBMCs; healthy PBMC, 4-hour MitoDAMP with 1 μM MCC950",marginally improved
